Assay results published in PMC10306345 (Journal of medicinal chemistry, 2013).
Like-named read-outs stand apart in the source and are kept apart here.

What was measured:
[1] = tested on: recombinant VACV (vL1Ri) EGFP under synthetic early/late promoter; type: cell-based, vaccinia virus
[2] = tested on: E9/A20/D4 dependent in vitro DNA synthesis; conditions: cited from earlier work
[3] = tested on: vaccinia virus (VACV); assay: microbe, parasite or virus in culture; type: cell-based; conditions: for IC50: Orthopoxvirus vaccinia
[4] = tested on: E3 protein; type: cell-based, vaccinia virus
[5] = tested on: A4 protein; type: cell-based, vaccinia virus
[6] = tested on: VACV viral factories in BSC-1 cells; type: cell-based, vaccinia virus

| Compound | antiviral activity (in words) [3] | also measured |
| --- | --- | --- |
| Nc1ccn(C[C@@H](CO)OCP(=O)(O)O)c(=O)n1.O.O [CDV, cidofovir, reference compound] | – | EGFP expression [1]: equally effective; EGFP expression, treatment post vL1Ri adsorption [1]: comparable EGFP expression and CPE to DMSO vehicle |
| Cc1ccc2c(Sc3ccc(Cl)cc3)c(C(=O)O)[nH]c2c1 [Compound 1, 3-((4-Chlorophenyl)thio)-6-methyl-1H-indole-2-carboxylic acid] | – | inhibition of in vitro DNA synthesis [2]: ability to inhibit in vitro DNA synthesis |
| O=C(O)c1[nH]c2ccccc2c1Sc1ccc(Cl)cc1 [Compound 1d] | loss of activity | – |
| COc1cccc2[nH]c(C(=O)O)c(Sc3ccc(Cl)cc3)c12 [Compound 1i] | loss of activity | – |
| Cc1ccc2c(c1)c(Sc1ccc(Cl)cc1)c(C(=O)O)n2C [Compound 2] | loss | – |
| CCn1c(C(=O)O)c(Sc2ccc(Cl)cc2)c2cc(C)ccc21 [Compound 3] | no gain in activities | – |
| COC(=O)c1[nH]c2cc(C)ccc2c1Sc1ccc(Cl)cc1 [Compound 6] | – | fold improvement in antiviral potency over parent 1 [3]: ~ 4 fold |
| COC(=O)c1[nH]c2ccc(C)cc2c1Sc1ccc(Cl)cc1 [Compound 7] | lost activity | – |
| COC(=O)c1[nH]c2c(C)cccc2c1Sc1ccc(Cl)cc1 [Compound 8] | – | fold improvement in antiviral potency over parent 1 [3]: ~ 4 fold |
| COC(=O)c1[nH]c2cccc(C)c2c1Sc1ccc(Cl)cc1 [Compound 9] | – | fold improvement in antiviral potency over parent 1 [3]: ~ 4 fold |
| Cc1ccc2c(Sc3ccccc3)c(C(=O)O)[nH]c2c1 [Compound 18] | abolished its antiviral activity | – |
| Cc1ccc2c(Sc3cccc(F)c3)c(C(=O)O)[nH]c2c1 [Compound 18b] | – | IC50 ([3]; read-out: IC50 (antiviral activity, Table 2)): 56 µM |
| Cc1ccc2c(Sc3ccc(Br)cc3)c(C(=O)O)[nH]c2c1 [Compound 18c] | loss of activity | – |
| Cc1ccc(Sc2c(C(=O)O)[nH]c3cc(C)ccc23)cc1 [Compound 18d] | failed to show antiviral activities | – |
| COc1ccc(Sc2c(C(=O)O)[nH]c3cc(C)ccc23)cc1 [Compound 18e] | failed to show antiviral activities | – |
| Cc1ccc2c(Sc3ccc(C(=O)O)cc3)c(C(=O)O)[nH]c2c1 [Compound 18f] | loss of activity | – |
| COc1ccc(Sc2c(C(=O)O)[nH]c3cccc(C)c23)cc1 [Compound 19] | failed to show antiviral activities | – |
| Cc1ccc(Sc2c(C(=O)O)[nH]c3cccc(C)c23)cc1 [Compound 19a] | failed to show antiviral activities | – |
| COC(=O)c1ccc(Sc2c(C(=O)O)[nH]c3cccc(C)c23)cc1 [Compound 19b] | failed to show antiviral activities | – |
| Cc1cccc2[nH]c(C(=O)O)c(Sc3ccc([N+](=O)[O-])cc3)c12 [Compound 19c] | loss of activity | – |
| Cc1ccc2c(Sc3cc(Cl)cc(Cl)c3)c(CCC(N)=O)[nH]c2c1 [Compound 24a, 3-(3-((3,5-Dichlorophenyl)thio)-6-methyl-1H-indol-2-yl)propanamide] | – | EGFP expression [1]: significantly reduced; EGFP expression, treatment post vL1Ri adsorption [1]: appreciable EGFP expression; cytopathic effect (CPE) [1]: lowered; E3 early protein level [4]: slight decrease; A4 late protein level [5]: dramatically reduced in a dose-dependent manner; BrdU labeling of viral factories [6]: significantly suppressed |
| Cc1ccc2c(Sc3cc(Cl)cc(Cl)c3)c(CCCC(N)=O)[nH]c2c1 [Compound 24c, 4-(3-((3,5-Dichlorophenyl)thio)-6-methyl-1H-indol-2-yl)butanamide] | – | fold decrease in antiviral potency [3]: ~ 5 fold |
| Cc1ccc2c(Sc3cc(Cl)cc(Cl)c3)c(CCC(=O)O)[nH]c2c1 [Compound 24d, 3-(3-((3,5-Dichlorophenyl)thio)-6-methyl-1H-indol-2-yl)propanoic acid] | – | fold decrease in antiviral potency [3]: ~ 5 fold |
| CCCCCCNC(=O)CCc1[nH]c2cc(C)ccc2c1Sc1cc(Cl)cc(Cl)c1 [Compound 24e, 3-(3-((3,5-Dichlorophenyl)thio)-6-methyl-1H-indol-2-yl)-N-hexylpropanamide] | loss of activity | – |
| COC(=O)c1[nH]c2cc(C)ccc2c1Sc1cc(Cl)cc(Cl)c1 [Compound 27] | loss of activity | – |
| CNC(=O)c1[nH]c2cc(C)ccc2c1Sc1cc(Cl)cc(Cl)c1 [Compound 28] | loss of activity | – |
| Cc1ccc2c(Sc3cc(Cl)c(Cl)cc3Cl)c(C(=O)O)[nH]c2c1 [Compound 30] | – | IC50 ([3]; read-out: IC50 (antiviral activity, Table 3)): 21 µM |
| Cc1ccc2c(Sc3ccc(C(F)(F)F)cc3[N+](=O)[O-])c(C(=O)O)[nH]c2c1 [Compound 31] | loss of activity | – |
